Patent publication US20100173777A1, “Piperazine Compounds Having Herbicidal Action” (BASF SE, priority 2007, published 2010)

Key:
Type in all cases: in vivo
[1] = test system: AMARE (Amaranthus retoflexus); test: greenhouse pre-emergence herbicidal test, AMARE; conditions: 1.0 kg/ha, scale from 0 to 100
From the text: (§1) The culture containers used were plastic flowerpots containing loamy sand with approximately 3.0% of humus as the substrate. The seeds of the test plants were sown separately for each species.
(§2) For the pre-emergence treatment, the active ingredients, which had been suspended or emulsified in water, were applied directly after sowing by means of finely distributing nozzles. The containers were irrigated gently to promote germination and growth and subsequently covered with transparent plastic hoods until the plants had rooted. This cover caused uniform germination of the test plants, unless this has been impaired by the active ingredients.
(§3) Depending on the species, the plants were kept at 10-25° C. or 20-35° C. The test period extended over 2 to 4 weeks. During this time, the plants were tended, and their response to the individual treatments was evaluated.
(§4) Evaluation was carried out using a scale from 0 to 100. 100 means no emergence of the plants, or complete destruction of at least the aerial moieties, and 0 means no damage, or normal course of growth. A good herbicidal activity is given at values of at least 70 and a very good herbicidal activity is given at values of at least 85.

[2] = test system: ALOMY (Alopecurus myosuroides); test: greenhouse pre-emergence herbicidal test, ALOMY; conditions: scale from 0 to 100
From the text: as §1, §2, §3, §4

[3] = test system: APESV (Apera spica-venti); test: greenhouse pre-emergence herbicidal test, APESV; conditions: scale from 0 to 100
From the text: as §1, §2, §3, §4

[4] = test system: ECHCG (Echinochloa crus-galli); test: greenhouse pre-emergence herbicidal test, ECHCG; conditions: scale from 0 to 100
From the text: as §1, §2, §3, §4

SETFA (Setaria faberi) = test: greenhouse pre-emergence herbicidal test, SETFA; conditions: 1.0 kg/ha, scale from 0 to 100
From the text: as §1, §2, §3, §4

[5] = test system: AMARE (Amaranthus retoflexus); test: greenhouse post-emergence herbicidal test, AMARE; conditions: 1.0 kg/ha, scale from 0 to 100
From the text: as §1
(§5) For the post-emergence treatment, the test plants were first grown to a height of 3 to 15 cm, depending on the plant habit, and only then treated with the active ingredients which had been suspended or emulsified in water. For this purpose, the test plants were either sown directly and grown in the same containers, or they were first grown separately as seedlings and transplanted into the test containers a few days prior to treatment.
as §3, §4

[6] = test system: CHEAL (Chenopodium album); test: greenhouse post-emergence herbicidal test, CHEAL; conditions: 1.0 kg/ha, scale from 0 to 100
From the text: as §1, §5, §3, §4

[7] = test system: ECHCG (Echinochloa crus-galli); test: greenhouse post-emergence herbicidal test, ECHCG; conditions: scale from 0 to 100
From the text: as §1, §5, §3, §4

SETVI (Setaria viridis) = test: greenhouse post-emergence herbicidal test, SETVI; conditions: 1.0 kg/ha, scale from 0 to 100
From the text: as §1, §5, §3, §4

[8] = test system: ALOMY (Alopecurus myosuroides); test: greenhouse post-emergence herbicidal test, ALOMY; conditions: 0.5 kg/ha, scale from 0 to 100
From the text: as §1, §5, §3, §4

[9] = test system: APESV (Apera spica-venti); test: greenhouse post-emergence herbicidal test, APESV; conditions: 0.5 kg/ha, scale from 0 to 100
From the text: as §1, §5, §3, §4

| SMILES | herbicidal activity against AMARE [1] | herbicidal activity against ALOMY ([2]; 1.0 kg/ha) | herbicidal activity against APESV ([3]; 1.0 kg/ha) | herbicidal activity against ECHCG ([4]; 1.0 kg/ha) | herbicidal activity against SETFA (SETFA (Setaria faberi)) | herbicidal activity against AMARE [5] | herbicidal activity against CHEAL [6] | herbicidal activity against ECHCG ([7]; 1.0 kg/ha) | herbicidal activity against SETVI (SETVI (Setaria viridis)) | herbicidal activity against ALOMY ([2]; 0.5 kg/ha) | herbicidal activity against APESV ([3]; 0.5 kg/ha) | herbicidal activity against ECHCG ([4]; 0.5 kg/ha) | herbicidal activity against ECHCG ([7]; 0.5 kg/ha) | herbicidal activity against ALOMY [8] | herbicidal activity against APESV [9] |
| --- | --- | --- | --- | --- | --- | --- | --- | --- | --- | --- | --- | --- | --- | --- | --- |
| CN1C(=O)C(C)(Cc2ccccc2)N(C)C(=O)C1Cc1ccccc1C#N (single isomer, unassigned) [Example 1 (main isomer 1), 2-[5-Benzyl-1,4,5-trimethyl-3,6-dioxopiperazine-2-ylmethyl]benzonitrile] | very good herbicidal activity (a very good herbicidal activity is given at values of at least 85) | very good herbicidal activity (a very good herbicidal activity is given at values of at least 85) | very good herbicidal activity (a very good herbicidal activity is given at values of at least 85) | very good herbicidal activity (a very good herbicidal activity is given at values of at least 85) | very good herbicidal activity (a very good herbicidal activity is given at values of at least 85) | very good herbicidal activity (a very good herbicidal activity is given at values of at least 85) | very good herbicidal activity (a very good herbicidal activity is given at values of at least 85) | very good herbicidal activity (a very good herbicidal activity is given at values of at least 85) | very good herbicidal activity (a very good herbicidal activity is given at values of at least 85) |  |  |  |  |  |  |
| CN1C(=O)C(C)(Cc2ccccc2)N(C)C(=O)C1Cc1ccccc1C#N (single isomer, unassigned) [Example 1 (minor isomer 2), 2-[5-Benzyl-1,4,5-trimethyl-3,6-dioxopiperazine-2-ylmethyl]benzonitrile] |  |  |  |  |  |  |  |  |  | very good herbicidal activity (a very good herbicidal activity is given at values of at least 85) | very good herbicidal activity (a very good herbicidal activity is given at values of at least 85) | very good herbicidal activity (a very good herbicidal activity is given at values of at least 85) | very good herbicidal activity (a very good herbicidal activity is given at values of at least 85) | very good herbicidal activity (a very good herbicidal activity is given at values of at least 85) | very good herbicidal activity (a very good herbicidal activity is given at values of at least 85) |
